Data: article PMC5526604 (Journal of medicinal chemistry, 2017)
Like-named read-outs stand apart in the source and are kept apart here.

How the values were obtained:
HIV integrase = HIV integrase (Human immunodeficiency virus type 1 group M subtype B, UniProt P04585); assay: HIV IN assay; type: biochemical, HIV-1
[1] = molecular target: HIV RT-associated RNase H (Human immunodeficiency virus type 1 group M subtype B, UniProt P04585); details: biochemical
[2] = read-out: Biochemical Inhibition INST IC50, as relisted in Table 2

Row | SMILES | IC50 (HIV integrase) | IC50 (HIV integrase; [2]) | selectivity of RNase H inhibition over INST inhibition [1]
1 | O=C(Nc1ccc(C(F)(F)F)cc1)c1c(NCc2ccccc2)[nH]c(=O)n(O)c1=O [Compound 10y, 6-(Benzylamino)-3-hydroxy-2,4-dioxo-N-(4-(trifluoromethyl)phenyl)-1,2,3,4-tetrahydropyrimidine-5-carboxamide] | > 100 µM | > 100 µM | 
2 | O=C(Nc1ccccc1)c1c(NCc2ccc(-c3ccccc3)cc2)[nH]c(=O)n(O)c1=O [Compound 10m, 6-(([1,1′-Biphenyl]-4-ylmethyl)amino)-3-hydroxy-2,4-dioxo-N-phenyl-1,2,3,4-tetrahydropyrimidine-5-carboxamide] | > 100 µM | > 100 µM | 
3 | O=C(Nc1ccccc1)c1c(NCc2ccccc2)[nH]c(=O)n(O)c1=O [Compound 10q, 6-(Benzylamino)-3-hydroxy-2,4-dioxo-N-phenyl-1,2,3,4-tetrahydropyrimidine-5-carboxamide] | > 100 µM | > 100 µM | 
4 | O=C(Nc1ccc(-c2ccccc2)cc1)c1c(NCc2ccc(-c3ccccc3)cc2)[nH]c(=O)n(O)c1=O [Compound 10k, N-([1,1′-Biphenyl]-4-yl)-6-(([1,1′-biphenyl]-4-ylmethyl)amino)-3-hydroxy-2,4-dioxo-1,2,3,4-tetrahydropyrimidine-5-carboxamide] | > 100 µM | > 100 µM | 
5 | O=C(Nc1ccc(-c2ccc(F)cc2)cc1)c1c(Nc2ccc(-c3ccccc3)cc2)[nH]c(=O)n(O)c1=O [Compound 10b, 6-([1,1′-Biphenyl]-4-ylamino)-N-(4′-fluoro-[1,1′-biphenyl]-4-yl)-3-hydroxy-2,4-dioxo-1,2,3,4-tetrahydropyrimidine-5-carboxamide] | > 100 µM |  | 
6 | O=C(NCc1cc(F)ccc1F)c1c(Nc2ccc(-c3ccccc3)cc2)[nH]c(=O)n(O)c1=O [Compound 10j, N-(2,5-Difluorobenzyl)-1-(hydroxy)-1,2,3,6-tetrahydro-2,6-dioxo-4-(biphenylamino) pyrimidine-5-carboxamide] | > 100 µM | > 100 µM | 
7 | O=C(NCc1cccc(F)c1)c1c(Nc2ccc(-c3ccccc3)cc2)[nH]c(=O)n(O)c1=O [Compound 10f, N-(3-Fluorobenzyl)-1-(hydroxy)-1,2,3,6-tetrahydro-2,6-dioxo-4 (biphenylamino)pyrimidine-5-carboxamide] | > 100 µM | > 100 µM | 
8 | O=C(NCc1ccc(F)cc1)c1c(Nc2ccc(-c3ccccc3)cc2)[nH]c(=O)n(O)c1=O [Compound 10e, N-(4-Fluorobenzyl)-1-(hydroxy)-1,2,3,6-tetrahydro-2,6-dioxo-4-(biphenylamino)pyrimidine-5-carboxamide] | > 100 µM |  | 
9 | O=C(NCc1ccccc1)c1c(Nc2ccccc2)[nH]c(=O)n(O)c1=O [Compound 10s, N-Benzyl-1-(hydroxy)-1,2,3,6-tetrahydro-2,6-dioxo-4-(phenylamino)pyrimidine-5-carboxamide] |  |  | ~4 fold
10 | O=C(Nc1ccc(-c2ccccc2)cc1)c1c(NCc2ccccc2)[nH]c(=O)n(O)c1=O [Compound 10o, N-([1,1′-Biphenyl]-4-yl)-6-(benzylamino)-3-hydroxy-2,4-dioxo-1,2,3,4-tetrahydropyrimidine-5-carboxamide] | > 100 µM | > 100 µM | 
11 | O=C(NCc1ccccc1F)c1c(Nc2ccc(-c3ccccc3)cc2)[nH]c(=O)n(O)c1=O [Compound 10g, N-(2-Fluorobenzyl)-1-(hydroxy)-1,2,3,6-tetrahydro-2,6-dioxo-4-(biphenylamino)pyrimidine-5-carboxamide] | > 100 µM |  | 
12 | O=C(NCc1ccc(-c2ccccc2)cc1)c1c(NCc2ccccc2)[nH]c(=O)n(O)c1=O [Compound 10p, N-([1,1′-Biphenyl]-4-ylmethyl)-6-(benzylamino)-3-hydroxy-2,4-dioxo-1,2,3,4-tetrahydropyrimidine-5-carboxamide] | > 100 µM | > 100 µM | 
13 | O=C(Nc1ccc(-c2ccccc2)cc1)c1c(Nc2ccc(-c3ccccc3)cc2)[nH]c(=O)n(O)c1=O [Compound 10a, N-([1,1′-Biphenyl]-4-yl)-6-([1,1′-biphenyl]-4-ylamino)-3-hydroxy-2,4-dioxo-1,2,3,4-tetrahydropyrimidine-5-carboxamide] | > 100 µM |  | 
14 | O=C(NCc1ccc(F)cc1F)c1c(Nc2ccc(-c3ccccc3)cc2)[nH]c(=O)n(O)c1=O [Compound 10i, N-(2,4-Difluorobenzyl)-1-(hydroxy)-1,2,3,6-tetrahydro-2,6-dioxo-4-(biphenylamino) pyrimidine-5-carboxamide] | > 100 µM | > 100 µM | 
15 | O=C(NCc1cccc(Cl)c1F)c1c(Nc2ccc(-c3ccccc3)cc2)[nH]c(=O)n(O)c1=O [Compound 10h, N-(3-Chloro-2-fluorobenzyl)-1-(hydroxy)-1,2,3,6-tetrahydro-2,6-dioxo-4-(biphenylamino)pyrimidine-5-carboxamide] | > 100 µM |  | 
16 | O=C(NCc1ccc(-c2ccccc2)cc1)c1c(NCc2ccc(-c3ccccc3)cc2)[nH]c(=O)n(O)c1=O [Compound 10l] | > 100 µM | > 100 µM | 
17 | COc1ccc(-c2ccc(NC(=O)c3c(Nc4ccc(-c5ccccc5)cc4)[nH]c(=O)n(O)c3=O)cc2)cc1 [Compound 10c, 6-([1,1′-Biphenyl]-4-ylamino)-3-hydroxy-N-(4′-methoxy-[1,1′-biphenyl]-4-yl)-2,4-dioxo-1,2,3,4-tetrahydropyrimidine-5-carboxamide] | > 100 µM |  | 
18 | CCc1ccc(NC(=O)c2c(NCc3ccccc3)[nH]c(=O)n(O)c2=O)cc1 [Compound 10v, 6-(Benzylamino)-N-(4-ethylphenyl)-3-hydroxy-2,4-dioxo-1,2,3,4-tetrahydropyrimidine-5-carboxamide] | > 100 µM | > 100 µM | 
